{"source": "ChEMBL document CHEMBL1125324", "about": "“Development of a novel class of cyclic hexapeptide oxytocin antagonists based on a natural product” (J Med Chem, 1992)", "key": {"Rattus norvegicus [1]": {"tested_on": "Rattus norvegicus", "assay": "Dose required for 50% reduction of the contractile response of the uterus to OT (1 ug/kg, iv bolus) in DES-pretreated rats", "format": "functional"}, "[2]": {"assay": "Aqueous solubility was determined", "format": "physicochemical"}, "Vasopressin V2 receptor [3]": {"biological_target": "T1, Vasopressin V2 receptor (Rattus norvegicus, UniProt Q00788)", "T1 sequence (Q00788 whole entry)": "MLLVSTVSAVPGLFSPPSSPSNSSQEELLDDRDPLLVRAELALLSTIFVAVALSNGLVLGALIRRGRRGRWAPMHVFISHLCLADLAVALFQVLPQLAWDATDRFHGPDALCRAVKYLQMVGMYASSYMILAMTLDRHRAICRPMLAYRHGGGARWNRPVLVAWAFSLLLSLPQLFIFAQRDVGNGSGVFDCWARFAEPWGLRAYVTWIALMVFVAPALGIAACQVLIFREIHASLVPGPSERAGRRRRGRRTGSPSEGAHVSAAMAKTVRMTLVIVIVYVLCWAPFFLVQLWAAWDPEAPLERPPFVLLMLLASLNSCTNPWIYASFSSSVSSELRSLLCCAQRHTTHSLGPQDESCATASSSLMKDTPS", "assay": "Inhibition of [3H]arginine vasopressin binding to AVP-V2 site in rat kidney medulla.", "format": "tissue-based"}, "Rattus norvegicus [4]": {"species": "Rattus norvegicus", "assay": "Compound was evaluated for the inhibition of accumulation of total [3H]inositol phosphates stimulated by exposure of the tissue to OT", "format": "functional"}, "Rattus norvegicus [5]": {"species": "Rattus norvegicus", "assay": "pA2 value was determined from regression analysis of log (dose ratio-1) vs -log [antagonist] (isolated uterus from DES-pretreated rats)", "format": "functional", "settings": "read-out: pA2 (converted)"}, "Vasopressin V1a receptor": {"biological_target": "Vasopressin V1a receptor (Rattus norvegicus, UniProt P30560)", "sequence (P30560 whole entry)": "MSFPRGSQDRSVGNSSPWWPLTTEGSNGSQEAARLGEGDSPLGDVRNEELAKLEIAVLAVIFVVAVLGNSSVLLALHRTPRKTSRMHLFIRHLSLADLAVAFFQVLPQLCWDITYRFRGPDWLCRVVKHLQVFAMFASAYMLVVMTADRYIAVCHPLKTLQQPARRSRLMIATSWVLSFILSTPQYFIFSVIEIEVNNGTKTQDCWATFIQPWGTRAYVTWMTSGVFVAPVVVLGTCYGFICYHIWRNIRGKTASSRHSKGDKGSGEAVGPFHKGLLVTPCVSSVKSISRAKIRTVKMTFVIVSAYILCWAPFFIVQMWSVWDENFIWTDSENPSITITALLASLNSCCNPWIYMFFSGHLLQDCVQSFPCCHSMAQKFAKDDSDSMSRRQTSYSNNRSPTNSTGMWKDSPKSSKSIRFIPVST", "assay": "Concentration required to displace 50% of [3H]arginine vasopressin from rat liver arginine vasopressin 1A (AVP-V1a) site."}, "[6]": {"biological_target": "T2, Oxytocin receptor (Rattus norvegicus) (UniProt P70536)", "T2 sequence (whole entry)": "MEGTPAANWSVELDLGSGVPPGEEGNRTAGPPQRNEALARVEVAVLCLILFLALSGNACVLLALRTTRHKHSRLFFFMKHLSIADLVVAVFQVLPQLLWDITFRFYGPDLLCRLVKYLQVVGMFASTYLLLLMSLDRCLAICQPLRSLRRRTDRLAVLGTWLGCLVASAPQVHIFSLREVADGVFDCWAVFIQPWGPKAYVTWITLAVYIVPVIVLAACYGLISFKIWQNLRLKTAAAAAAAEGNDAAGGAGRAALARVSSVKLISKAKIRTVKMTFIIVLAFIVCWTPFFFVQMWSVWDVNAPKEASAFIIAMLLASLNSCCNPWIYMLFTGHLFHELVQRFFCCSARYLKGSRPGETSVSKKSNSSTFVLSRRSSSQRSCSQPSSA", "assay": "Inhibition of displacement of [3H]oxytocin from rat uterine receptor at 10 uM"}, "[7]": {"biological_target": "Vasopressin V1a receptor (Rattus norvegicus) (UniProt P30560)", "sequence (P30560 whole entry, looked up)": "as the sequence (P30560 whole entry) above", "assay": "Displacement of [3H]arginine vasopressin from rat liver (AVP-V1a site) at 10 uM"}, "[8]": {"biological_target": "Vasopressin V2 receptor (Rattus norvegicus) (UniProt Q00788)", "sequence (Q00788 whole entry)": "as the sequence (Q00788 whole entry) above", "assay": "Displacement of [3H]arginine vasopressin from rat kidney medullary (AVP-V2 site) at 10 uM", "format": "tissue-based"}, "Vasopressin V2 receptor [9]": {"biological_target": "T1, Vasopressin V2 receptor", "assay": "Concentration required to displace 50% of [3H]arginine vasopressin from rat kidney medullary (AVP-[…] site)"}, "Oxytocin receptor [10]": {"biological_target": "T3, Oxytocin receptor (Homo sapiens, UniProt P30559)", "T3 sequence (P30559 whole entry)": "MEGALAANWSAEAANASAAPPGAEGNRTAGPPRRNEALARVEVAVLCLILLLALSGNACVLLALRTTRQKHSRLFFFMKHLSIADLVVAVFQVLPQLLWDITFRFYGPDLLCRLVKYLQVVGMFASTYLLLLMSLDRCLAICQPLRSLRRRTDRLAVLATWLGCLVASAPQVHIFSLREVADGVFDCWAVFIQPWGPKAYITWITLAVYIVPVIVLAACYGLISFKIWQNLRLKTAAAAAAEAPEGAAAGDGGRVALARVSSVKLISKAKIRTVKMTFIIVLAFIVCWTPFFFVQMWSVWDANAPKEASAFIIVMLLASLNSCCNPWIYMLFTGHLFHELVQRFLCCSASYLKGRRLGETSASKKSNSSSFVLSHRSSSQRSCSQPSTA", "assay": "Compound was evaluated for OT receptor affinity by displacement of [3H]OT from binding sites in uterine tissue taken from nonlabor pregnant women"}, "Oxytocin receptor [11]": {"biological_target": "T4, Oxytocin receptor (Rattus norvegicus, UniProt P70536)", "T4 sequence (P70536 whole entry)": "T2 sequence (whole entry)", "assay": "Compound was evaluated for OT receptor affinity by displacement of [3H]OT from binding sites in uterine tissue taken from pregnant rats"}, "Oxytocin receptor [12]": {"biological_target": "T4, Oxytocin receptor", "assay": "Concentration required to displace 50% of [3H]oxytocin from rat uterine receptor."}, "Rattus norvegicus [13]": {"species": "Rattus norvegicus", "assay": "pA2 value by AVP (V1a) stimulated contraction of the isolated rat tail artery", "format": "functional", "settings": "read-out: pA2 (converted)"}, "Vasopressin V2 receptor [14]": {"biological_target": "T1, Vasopressin V2 receptor", "assay": "Ability to inhibit AVP stimulation of adenylate cyclase activity in the rat kidney medulla (AVP-V2) receptor"}, "Rattus norvegicus [15]": {"species": "Rattus norvegicus", "assay": "Compound was evaluated for the inhibition of accumulation of total [3H]inositol phosphates stimulated by exposure of uterine slices from DES-pretreated rats to OT", "format": "functional"}, "Rattus norvegicus [16]": {"species": "Rattus norvegicus", "assay": "pA2 value was determined from regression analysis of log (dose ratio-1) vs -log [antagonist] (OT stimulated contractions in isolated uterus from DES-pretreated rats)", "format": "functional", "settings": "read-out: pA2 (converted)"}}, "note": "Where a SMILES comes first, the peptide text is derived from it. [ ]: non-standard residue; d: D form. d2Nal = N[C@H](Cc1ccc2ccccc2c1)C(=O)O; Pip(4-aza) = O=C(O)[C@@H]1CNCCN1; dNMeF = CN[C@H](Cc1ccccc1)C(=O)O; Pip = O=C(O)[C@@H]1CCCCN1; dPip = O=C(O)[C@H]1CCCCN1", "data": [{"smiles": "CC[C@H](C)[C@@H]1NC(=O)[C@@H](Cc2c[nH]c3ccccc23)NC(=O)[C@@H]2CCCN2C(=O)[C@@H](Cc2c[nH]cn2)NC(=O)[C@@H]2CCCCN2C(=O)[C@H]2CCC=NN2C1=O", "values": [{"measurement": "AD50", "setting": "Rattus norvegicus [1]", "result": 0.0903, "unit": "mg/kg"}, {"measurement": "solubility", "setting": "[2]", "result": 1900, "unit": "µg/mL"}, {"measurement": "IC50", "setting": "Vasopressin V2 receptor [3]", "result": 1.1, "unit": "µM"}, {"measurement": "IC50", "setting": "Rattus norvegicus [4]", "result": 0.042, "unit": "µM"}, {"measurement": "Kb", "setting": "Rattus norvegicus [5]", "result": 0.00151, "unit": "µM"}]}, {"smiles": "CC[C@H](C)[C@@H]1NC(=O)[C@@H](Cc2ccccc2)NC(=O)[C@@H]2CCCN2C(=O)[C@@H](Cc2ccccc2)N(C)C(=O)[C@H](CCCN)NC(=O)[C@H]2CCC=NN2C1=O", "values": [{"measurement": "AD50", "setting": "Rattus norvegicus [1]", "result": 0.0716, "unit": "mg/kg"}, {"measurement": "solubility", "setting": "[2]", "result": 1500, "unit": "µg/mL"}, {"measurement": "IC50", "setting": "Vasopressin V1a receptor", "result": 0.8, "unit": "µM"}, {"measurement": "Kb", "setting": "Rattus norvegicus [5]", "result": 0.00339, "unit": "µM"}]}, {"smiles": "CC[C@H](C)[C@@H]1NC(=O)[C@H](C)NC(=O)[C@@H]2CCCN2C(=O)[C@@H](Cc2ccccc2)N(C)C(=O)[C@@H]2CCCCN2C(=O)[C@H]2CCCCN2C1=O", "values": [{"measurement": "inhibition", "setting": "[6]", "result": 0, "unit": "%"}, {"measurement": "inhibition", "setting": "[7]", "result": 0, "unit": "%"}, {"measurement": "inhibition", "setting": "[8]", "result": 4, "unit": "%"}]}, {"smiles": "CC[C@H](C)[C@@H]1NC(=O)[C@@H](Cc2c[nH]c3ccccc23)NC(=O)[C@@H]2CCCN2C(=O)[C@@H](Cc2ccccc2)N(C)C(=O)[C@H](CCCCN)NC(=O)[C@H]2CCCCN2C1=O", "note": "(cyclo(I[dPip]K[dNMeF]P[dW]))", "values": [{"measurement": "IC50", "setting": "Vasopressin V2 receptor [9]", "result": 0.41, "unit": "µM"}, {"measurement": "IC50", "setting": "Vasopressin V1a receptor", "result": 1.6, "unit": "µM"}]}, {"smiles": "CC[C@H](C)[C@@H]1NC(=O)[C@@H](Cc2c[nH]c3ccccc23)NC(=O)[C@@H]2CCCN2C(=O)[C@@H](Cc2ccccc2)N(C)C(=O)[C@@H]2CNCCN2C(=O)[C@H]2CCCCN2C1=O", "note": "(cyclo(I[dPip][Pip(4-aza)][dNMeF]P[dW]))", "values": [{"measurement": "AD50", "setting": "Rattus norvegicus [1]", "result": 0.101, "unit": "mg/kg"}, {"measurement": "solubility", "setting": "[2]", "result": 1400, "unit": "µg/mL"}, {"measurement": "Ki", "setting": "Oxytocin receptor [10]", "result": 0.0045, "unit": "µM"}, {"measurement": "IC50", "setting": "Vasopressin V1a receptor", "result": 32, "unit": "µM"}, {"measurement": "IC50", "setting": "Vasopressin V2 receptor [3]", "result": 0.69, "unit": "µM"}, {"measurement": "Ki", "setting": "Oxytocin receptor [11]", "result": 0.0034, "unit": "µM"}, {"measurement": "IC50", "setting": "Oxytocin receptor [12]", "result": 0.0084, "unit": "µM"}, {"measurement": "Kb", "setting": "Rattus norvegicus [5]", "result": 0.00257, "unit": "µM"}]}, {"smiles": "CC[C@H](C)[C@@H]1NC(=O)[C@@H](Cc2ccc3ccccc3c2)NC(=O)[C@@H]2CCCN2C(=O)[C@@H](Cc2c[nH]cn2)NC(=O)[C@@H]2CCCCN2C(=O)[C@H]2CCCCN2C1=O", "note": "(cyclo(I[dPip][Pip][dH]P[d2Nal]))", "values": [{"measurement": "AD50", "setting": "Rattus norvegicus [1]", "result": 0.102, "unit": "mg/kg"}, {"measurement": "solubility", "setting": "[2]", "result": 1500, "unit": "µg/mL"}, {"measurement": "Ki", "setting": "Oxytocin receptor [10]", "result": 0.0051, "unit": "µM"}, {"measurement": "IC50", "setting": "Vasopressin V1a receptor", "result": 2.6, "unit": "µM"}, {"measurement": "IC50", "setting": "Vasopressin V2 receptor [3]", "result": 0.91, "unit": "µM"}, {"measurement": "Kb", "setting": "Rattus norvegicus [13]", "result": 0.282, "unit": "µM"}, {"measurement": "Ki", "setting": "Oxytocin receptor [11]", "result": 0.0007, "unit": "µM"}, {"measurement": "IC50", "setting": "Rattus norvegicus [4]", "result": 0.04, "unit": "µM"}, {"measurement": "IC50", "setting": "Oxytocin receptor [12]", "result": 0.0022, "unit": "µM"}, {"measurement": "Kb", "setting": "Rattus norvegicus [5]", "result": 0.00295, "unit": "µM"}, {"measurement": "IC50", "setting": "Vasopressin V2 receptor [14]", "result": 0.81, "unit": "µM"}]}, {"smiles": "CC[C@H](C)[C@@H]1NC(=O)[C@@H](Cc2c[nH]c3ccccc23)NC(=O)[C@@H]2CCCN2C(=O)[C@@H](Cc2c[nH]cn2)NC(=O)[C@@H]2CCCCN2C(=O)[C@H]2CCCCN2C1=O", "note": "(cyclo(I[dPip][Pip][dH]P[dW])) [listing 1 of 2 here]", "values": [{"measurement": "Kb", "setting": "Rattus norvegicus [13]", "result": 0.871, "unit": "µM"}, {"measurement": "IC50", "setting": "Rattus norvegicus [15]", "result": 0.067, "unit": "µM"}, {"measurement": "Kb", "setting": "Rattus norvegicus [16]", "result": 0.00251, "unit": "µM"}]}, {"smiles": "CC[C@H](C)[C@@H]1NC(=O)[C@@H](Cc2c[nH]c3ccccc23)NC(=O)[C@@H]2CCCN2C(=O)[C@@H](Cc2c[nH]cn2)NC(=O)[C@@H]2CCCCN2C(=O)[C@H]2CCCCN2C1=O", "note": "(cyclo(I[dPip][Pip][dH]P[dW])) [listing 2 of 2 here]", "values": [{"measurement": "solubility", "setting": "[2]", "result": 2000, "unit": "µg/mL"}, {"measurement": "IC50", "setting": "Vasopressin V1a receptor", "result": 7.4, "unit": "µM"}, {"measurement": "IC50", "setting": "Vasopressin V2 receptor [3]", "result": 5.2, "unit": "µM"}, {"measurement": "IC50", "setting": "Vasopressin V2 receptor [14]", "result": 3.1, "unit": "µM"}]}]}
